# Assay results reported in patent publication US12264139B2, “Aryl sulfonamides as BLT1 antagonists” (Merck Sharp & Dohme LLC, priority 2015, dated 2025).
# Target: T1, human BLT1 receptor (Homo sapiens, UniProt Q15722)
# T1 construct: expressed in transfected cells; host or cells: HEK293
# Assay: BLT-1 cAMP Assay
# Assay type: cell-based
# Conditions: HEK293 cells recombinantly expressing human BLT1; antagonist activity vs forskolin 4 μM and LTB4 2 nM; cAMP (CisBio kit)
# Protocol: The ability of compounds to antagonize the human BLT1 receptor was determined using a kit to measure changes in intracellular cyclic AMP levels (cAMP dynamic assay kit, Cisbio Cat. No. 62AM4PEC). […] The cell suspension was centrifuged at 200×g for 10 min and then resuspended in fresh assay medium to a density of 2.5×10^5 cells/mL. […] All subsequent liquid additions were performed using a BIORAPTR (FRD; Beckman Coulter). Next, 5 μL of cell suspension was added and incubated for 20 min. at 37° C. and 5% CO2 in a humidified plastic tray.
# The levels of cAMP were detected using the CisBio kit following the manufacturer's instructions: cAMP-d2 vial was reconstituted with distilled water and then diluted accordingly with conjugate & lysis buffer. 5 µL of cAMP-d2 working solution was added to all of the wells of the assay plate. cAMP-Cryptate vial was reconstituted with distilled water and then diluted accordingly with conjugate & lysis buffer. 5 µL of cAMP-Cryptate working solution were added to the assay plate. The assay plate was shaken for 3 minutes and incubated at room temperature for 45 minutes, then read on Perkin Elmer Envision. cAMP standard curve and fit data were plotted using a 4 parameter dose response curve fitting algorithm to fit curve. […] After normalization to treated and untreated controls, the percent effect of signal at each compound concentration was calculated. The plot of percent effect versus the log of compound concentration was fit with a 4-parameter concentration response equation to calculate EC50 values.
# T1 sequence (Q15722 whole entry): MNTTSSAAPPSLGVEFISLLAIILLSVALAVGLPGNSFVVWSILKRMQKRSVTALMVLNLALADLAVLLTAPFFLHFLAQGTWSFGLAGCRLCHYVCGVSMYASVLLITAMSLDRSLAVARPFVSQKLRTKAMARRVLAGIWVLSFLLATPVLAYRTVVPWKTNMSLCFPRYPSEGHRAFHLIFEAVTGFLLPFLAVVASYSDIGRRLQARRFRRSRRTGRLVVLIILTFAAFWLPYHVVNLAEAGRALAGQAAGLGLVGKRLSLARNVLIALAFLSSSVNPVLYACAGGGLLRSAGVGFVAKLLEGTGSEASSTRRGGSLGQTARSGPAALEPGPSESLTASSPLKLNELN
row,SMILES,EC50 [nM]
1,"O=S(=O)(Nc1ccccc1-c1ccc2c(c1)OC[C@@H](Cc1ccc(-c3ccccc3)cc1)[C@H]2O)C(F)(F)F (racemic) [Example 3, N-(2-((3,4-Rac-cis)-3-([1,1′-biphenyl]-4-ylmethyl)-4-hydroxychroman-7-yl)phenyl)-1,1,1-trifluoromethanesulfonamide]",2290
2,"O=S(=O)(Nc1ccccc1-c1ccc2c(c1)OCC(Cc1cc[nH]n1)C2O)C(F)(F)F (racemic) [Example 6, N-(2-((3,4-Rac-trans)-3-((1H-pyrazol-3-yl)methyl)-4-hydroxychroman-7-yl)phenyl)-1,1,1-trifluoromethanesulfonamide]",240
3,"O=S(=O)(Nc1ccccc1-c1ccc2c(c1)OCC(Cc1cccnc1)C2O)C(F)(F)F (racemic) [Example 7, 1,1,1-Trifluoro-N-(2-((3,4-rac-trans)-4-hydroxy-3-(pyridin-3-ylmethyl)chroman-7-yl)phenyl)methanesulfonamide]",3510
4,"O=S(=O)(Nc1ccccc1-c1ccc2c(c1)OC[C@@H](Cc1cncs1)[C@@H]2O)C(F)(F)F (racemic) [Example 9, 1,1,1-Trifluoro-N-(2-((3,4-rac-trans)-4-hydroxy-3-(thiazol-5-ylmethyl)chroman-7-yl)phenyl)methanesulfonamide]",269
5,"O=S(=O)(Nc1ccccc1-c1ccc2c(c1)OC[C@@H](Cc1cncs1)[C@H]2O)C(F)(F)F (racemic) [Example 10, 1,1,1-Trifluoro-N-(2-((3,4-rac-cis)-4-hydroxy-3-(thiazol-5-ylmethyl)chroman-7-yl)phenyl)methanesulfonamide]",4540
6,"O=S(=O)(Nc1ccccc1-c1ccc2c(c1)OCC(Cc1cn[nH]c1)C2O)C(F)(F)F (racemic) [Example 12, N-(2-((3,4-Rac-trans)-3-((1H-pyrazol-4-yl)methyl)-4-hydroxychroman-7-yl)phenyl)-1,1,1-trifluoromethanesulfonamide]",1650
7,"Cn1nccc1CC1COc2cc(-c3ccccc3NS(=O)(=O)C(F)(F)F)ccc2C1O (racemic) [Example 13, 1,1,1-Trifluoro-N-(2-((3,4-rac-trans)-4-hydroxy-3-((1-methyl-1H-pyrazol-5-yl)methyl)chroman-7-yl)phenyl)methanesulfonamide]",185
8,"O=S(=O)(Nc1ccccc1-c1ccc2c(c1)OC[C@H](Cc1ncco1)[C@H]2O)C(F)(F)F (racemic) [Example 15, 1,1,1-Trifluoro-N-{2-[(rac-trans)-4-hydroxy-3-(1,3-oxazol-2-ylmethyl)-3,4-dihydro-2H-chromen-7-yl]phenyl}methanesulfonamide]",994
9,"Cc1nc(C[C@@H]2COc3cc(-c4ccccc4NS(=O)(=O)C(F)(F)F)ccc3[C@H]2O)cs1 (racemic) [Example 16, 1,1,1-Trifluoro-N-(2-{(rac-trans)-4-hydroxy-3-[(2-methyl-1,3-thiazol-4-yl)methyl]-3,4-dihydro-2H-chromen-7-yl}phenyl)methanesulfonamide]",826
10,"O=S(=O)(Nc1ccccc1-c1ccc2c(c1)OC[C@H](Cc1ncccc1F)[C@H]2O)C(F)(F)F (racemic) [Example 19, 1,1,1-Trifluoro-N-(2-{(rac-trans)-3-[(3-fluoropyridin-2-yl)methyl]-4-hydroxy-3,4-dihydro-2H-chromen-7-yl}phenyl)methanesulfonamide]",1600
11,"Cc1cccc(C[C@H]2COc3cc(-c4ccccc4NS(=O)(=O)C(F)(F)F)ccc3[C@@H]2O)n1 (racemic) [Example 20, 1,1,1-Trifluoro-N-(2-{(rac-trans)-4-hydroxy-3-[(6-methylpyridin-2-yl)methyl]-3,4-dihydro-2H-chromen-7-yl}phenyl)methanesulfonamide]",215
12,"O=S(=O)(Nc1ccccc1-c1ccc2c(c1)OC[C@H](Cc1csc(-c3ccccc3)n1)[C@H]2O)C(F)(F)F (racemic) [Example 24, 1,1,1-Trifluoro-N-(2-((rac-trans)-4-hydroxy-3-((2-phenylthiazol-4-yl)methyl)chroman-7-yl)phenyl)methanesulfonamide]",329
13,"O=S(=O)(Nc1ccccc1-c1ccc2c(c1)OC[C@H](Cc1cnccn1)[C@H]2O)C(F)(F)F (racemic) [Example 27, 1,1,1-Trifluoro-N-{2-[(rac-trans)-4-hydroxy-3-(pyrazin-2-ylmethyl)-3,4-dihydro-2H-chromen-7-yl]phenyl}methanesulfonamide]",209
14,"O=S(=O)(Nc1ccccc1-c1ccc2c(c1)OC[C@H](Cc1cccnn1)[C@H]2O)C(F)(F)F (racemic) [Example 28, 1,1,1-Trifluoro-N-{2-[(rac-trans)-4-hydroxy-3-(pyridazin-3-ylmethyl)-3,4-dihydro-2H-chromen-7-yl]phenyl}methanesulfonamide]",2140
15,"O=S(=O)(Nc1ccccc1-c1ccc2c(c1)OC[C@H](Cc1ccc(F)cn1)[C@H]2O)C(F)(F)F (racemic) [Example 29, 1,1,1-Trifluoro-N-(2-((rac-trans)-3-((5-fluoropyridin-2-yl)methyl)-4-hydroxychroman-7-yl)phenyl)methanesulfonamide]",464

# Stronger by EC50, values ahead:
row,EC50 [nM],SMILES
1,105,"Cc1ccc(CC2COc3cc(-c4ccccc4NS(=O)(=O)C(F)(F)F)ccc3C2O)nc1 (racemic) [Example 11, 1,1,1-Trifluoro-N-(2-((3,4-rac-trans)-4-hydroxy-3-((5-methylpyridin-2-yl)methyl)chroman-7-yl)phenyl)methanesulfonamide]"
2,101,"O=S(=O)(Nc1ccccc1-c1ccc2c(c1)OC[C@H](Cc1cn(-c3ccccc3)nn1)[C@H]2O)C(F)(F)F (racemic) [Example 14, 1,1,1-Trifluoro-N-(2-{(rac-trans)-4-hydroxy-3-[(1-phenyl-1H-1,2,3-triazol-4-yl)methyl]-3,4-dihydro-2H-chromen-7-yl}phenyl)methanesulfonamide]"
3,32,"Cc1nnc(C[C@H]2COc3cc(-c4ccccc4NS(=O)(=O)C(F)(F)F)ccc3[C@@H]2O)s1 (racemic) [Example 23, 1,1,1-Trifluoro-N-(2-{(rac-trans)-4-hydroxy-3-[(5-methyl-1,3,4-thiadiazol-2-yl)methyl]-3,4-dihydro-2H-chromen-7-yl}phenyl)methanesulfonamide]"
4,31,"O=S(=O)(Nc1ccccc1-c1ccc2c(c1)OCC(Cc1ccccc1)C2O)C(F)(F)F (racemic) [Example 2, N-(2-((3,4-Rac-trans)-3-benzyl-4-hydroxychroman-7-yl)phenyl)-1,1,1-trifluoromethanesulfonamide]"
5,21,"O=S(=O)(Nc1ccccc1-c1ccc2c(c1)OCC(Cc1ccsc1)C2O)C(F)(F)F (racemic) [Example 8, 1,1,1-Trifluoro-N-(2-((3,4-rac-trans)-4-hydroxy-3-(thiophen-3-ylmethyl)chroman-7-yl)phenyl)methanesulfonamide]"
6,9,"O=S(=O)(Nc1ccccc1-c1ccc2c(c1)OCC(Cc1ccc(-c3ccccc3)s1)C2O)C(F)(F)F (racemic) [Example 5, 1,1,1-Trifluoro-N-(2-((3,4-rac-trans)-4-hydroxy-3-((5-phenylthiophen-2-yl)methyl)chroman-7-yl)phenyl)methanesulfonamide]"
7,6,"O=S(=O)(Nc1ccccc1-c1ccc2c(c1)OC[C@@H](Cc1ccc(-c3ccccc3)cc1)[C@@H]2O)C(F)(F)F (racemic) [Example 4, N-(2-((3,4-Rac-trans)-3-([1,1′-biphenyl]-4-ylmethyl)-4-hydroxychroman-7-yl)phenyl)-1,1,1-trifluoromethanesulfonamide]"
